From patent publication US20170190705A1, “Compositions and Methods for Inhibiting BMP” (THE BRIGHAM AND WOMAN'S HOSPITAL, INC., priority 2014, published 2017) come the findings set out here.

Holding throughout (assay type): biochemical
For assay [1], the target named is SRC (Homo sapiens, UniProt P12931). In words: Kinome profiling SRC. The following applies: read-out: Inhibitory activity SRC; for inhibition at 0.1 µM: 100 nM. The protocol:
(§1) . The kinome-wide selectivity was determined following the methods previously reported by Mohedas et al., ACS Chem Biol 2013, 8, 1291-1302 and Sanvitale et al., PLoS One 2013, 8, e62721.

Assay [2] addresses SRPK1 (Homo sapiens, UniProt Q96SB4). In words: Kinome profiling SRPK1. The following applies: read-out: Inhibitory activity SRPK1; for inhibition at 0.1 µM: 100 nM. Here is the method:
as §1

Assay [3] concerns the target T1, PRKX (Homo sapiens, UniProt P51817).
T1 sequence (P51817 1-358): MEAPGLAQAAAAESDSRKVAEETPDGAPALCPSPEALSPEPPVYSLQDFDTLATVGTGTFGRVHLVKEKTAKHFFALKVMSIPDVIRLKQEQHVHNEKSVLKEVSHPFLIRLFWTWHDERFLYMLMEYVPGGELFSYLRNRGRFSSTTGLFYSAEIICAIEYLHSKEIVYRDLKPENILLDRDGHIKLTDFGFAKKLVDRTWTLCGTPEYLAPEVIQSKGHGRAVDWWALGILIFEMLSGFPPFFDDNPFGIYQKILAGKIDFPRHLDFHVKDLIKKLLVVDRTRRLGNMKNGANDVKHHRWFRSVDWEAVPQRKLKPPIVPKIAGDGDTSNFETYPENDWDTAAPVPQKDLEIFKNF
In words: Kinome profiling PRKX. Particulars: read-out: Inhibitory activity PRKX; for inhibition at 0.1 µM: 100 nM. The protocol:
as §1

Assay [4] addresses RSK3 (Homo sapiens, UniProt Q15349). In words: Kinome profiling RSK3. The following applies: read-out: Inhibitory activity RSK3; for inhibition at 0.1 µM: 100 nM. The protocol: as §1
Assay [5] deals with T2, EPHB2 (Homo sapiens, UniProt P29323).
T2 sequence (P29323 19-1055): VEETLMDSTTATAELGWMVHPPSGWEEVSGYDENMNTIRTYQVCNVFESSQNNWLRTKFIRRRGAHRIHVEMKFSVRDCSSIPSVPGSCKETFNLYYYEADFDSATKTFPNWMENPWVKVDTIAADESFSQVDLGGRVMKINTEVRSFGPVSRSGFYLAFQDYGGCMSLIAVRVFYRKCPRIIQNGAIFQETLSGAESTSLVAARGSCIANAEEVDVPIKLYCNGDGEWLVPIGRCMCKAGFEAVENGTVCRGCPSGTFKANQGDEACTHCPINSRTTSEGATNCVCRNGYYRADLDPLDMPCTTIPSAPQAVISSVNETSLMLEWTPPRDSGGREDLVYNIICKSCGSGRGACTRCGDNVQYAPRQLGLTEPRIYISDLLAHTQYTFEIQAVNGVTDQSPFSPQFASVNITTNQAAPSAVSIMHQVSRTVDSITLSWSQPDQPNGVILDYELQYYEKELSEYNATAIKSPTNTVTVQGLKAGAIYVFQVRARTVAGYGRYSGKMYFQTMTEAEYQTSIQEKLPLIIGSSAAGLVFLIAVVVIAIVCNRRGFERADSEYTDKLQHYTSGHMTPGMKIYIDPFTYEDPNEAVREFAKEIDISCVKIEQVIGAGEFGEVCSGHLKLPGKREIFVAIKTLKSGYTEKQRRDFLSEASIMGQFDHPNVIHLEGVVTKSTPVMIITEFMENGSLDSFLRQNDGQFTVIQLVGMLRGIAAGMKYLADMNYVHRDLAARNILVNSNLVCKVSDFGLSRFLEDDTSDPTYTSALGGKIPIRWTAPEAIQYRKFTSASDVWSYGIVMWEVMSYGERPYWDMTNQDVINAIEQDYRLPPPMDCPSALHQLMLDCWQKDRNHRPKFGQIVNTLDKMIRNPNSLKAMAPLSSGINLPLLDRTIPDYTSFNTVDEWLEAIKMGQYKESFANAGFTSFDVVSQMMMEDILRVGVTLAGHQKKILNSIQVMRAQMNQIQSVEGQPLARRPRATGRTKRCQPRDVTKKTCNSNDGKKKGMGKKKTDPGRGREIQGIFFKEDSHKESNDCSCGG
In words: Kinome profiling EPHB2. The following applies: read-out: Inhibitory activity EPHB2; for inhibition at 0.1 µM: 100 nM. The protocol: as §1

The target of assay [6] is GSK3β (Homo sapiens, UniProt P49841). In words: Kinome profiling GSK3β. Particulars: read-out: Inhibitory activity GSK3β; for inhibition at 0.1 µM: 100 nM. Here is the method: as §1
In assay [7] the target is T3, SGK2 (Homo sapiens, UniProt Q9HBY8).
T3 sequence (Q9HBY8 1-367): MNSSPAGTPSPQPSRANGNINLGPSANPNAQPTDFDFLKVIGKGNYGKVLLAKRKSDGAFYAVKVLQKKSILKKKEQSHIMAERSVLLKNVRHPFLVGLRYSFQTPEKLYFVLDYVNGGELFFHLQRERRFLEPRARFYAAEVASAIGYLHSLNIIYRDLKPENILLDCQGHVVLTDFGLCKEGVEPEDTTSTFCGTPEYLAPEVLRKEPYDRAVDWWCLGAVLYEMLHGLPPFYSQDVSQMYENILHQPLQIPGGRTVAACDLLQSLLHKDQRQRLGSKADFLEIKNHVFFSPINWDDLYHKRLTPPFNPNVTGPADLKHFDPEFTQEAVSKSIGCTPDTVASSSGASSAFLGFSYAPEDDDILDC
In words: Kinome profiling SGK2. Particulars: read-out: Inhibitory activity SGK2; for inhibition at 0.1 µM: 100 nM. The protocol:
as §1

For assay [8], the target named is CDK6/cyclinD3 (Homo sapiens, UniProt Q00534). In words: Kinome profiling CDK6/cyclinD3. The following applies: read-out: Inhibitory activity CDK6/cyclinD3; for inhibition at 0.1 µM: 100 nM. The protocol:
as §1

In assay [9] the target is BLK (Homo sapiens, UniProt P51451). The assay is described as follows: Kinome profiling BLK. The following applies: read-out: Inhibitory activity BLK; for inhibition at 0.1 µM: 100 nM. The protocol:
as §1

The target of assay [10] is MNK2 (Homo sapiens, UniProt Q9HBH9). In words: Kinome profiling MNK2. The following applies: read-out: Inhibitory activity MNK2; for inhibition at 0.1 µM: 100 nM. Here is the method:
as §1

BLK, sequence (P51451 whole entry): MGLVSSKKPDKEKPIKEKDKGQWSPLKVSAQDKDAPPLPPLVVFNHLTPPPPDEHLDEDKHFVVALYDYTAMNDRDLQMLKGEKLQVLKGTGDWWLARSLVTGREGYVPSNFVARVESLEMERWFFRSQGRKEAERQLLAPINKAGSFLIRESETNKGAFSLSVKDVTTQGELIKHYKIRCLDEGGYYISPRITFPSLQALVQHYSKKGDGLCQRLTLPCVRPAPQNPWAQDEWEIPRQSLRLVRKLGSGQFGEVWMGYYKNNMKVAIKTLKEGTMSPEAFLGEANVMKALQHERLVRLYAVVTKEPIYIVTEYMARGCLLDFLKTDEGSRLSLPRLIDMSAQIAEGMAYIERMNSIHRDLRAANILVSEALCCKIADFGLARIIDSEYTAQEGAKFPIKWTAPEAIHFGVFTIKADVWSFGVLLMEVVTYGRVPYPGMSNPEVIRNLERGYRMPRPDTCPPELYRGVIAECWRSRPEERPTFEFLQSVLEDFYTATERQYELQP
SRPK1, sequence (Q96SB4 whole entry): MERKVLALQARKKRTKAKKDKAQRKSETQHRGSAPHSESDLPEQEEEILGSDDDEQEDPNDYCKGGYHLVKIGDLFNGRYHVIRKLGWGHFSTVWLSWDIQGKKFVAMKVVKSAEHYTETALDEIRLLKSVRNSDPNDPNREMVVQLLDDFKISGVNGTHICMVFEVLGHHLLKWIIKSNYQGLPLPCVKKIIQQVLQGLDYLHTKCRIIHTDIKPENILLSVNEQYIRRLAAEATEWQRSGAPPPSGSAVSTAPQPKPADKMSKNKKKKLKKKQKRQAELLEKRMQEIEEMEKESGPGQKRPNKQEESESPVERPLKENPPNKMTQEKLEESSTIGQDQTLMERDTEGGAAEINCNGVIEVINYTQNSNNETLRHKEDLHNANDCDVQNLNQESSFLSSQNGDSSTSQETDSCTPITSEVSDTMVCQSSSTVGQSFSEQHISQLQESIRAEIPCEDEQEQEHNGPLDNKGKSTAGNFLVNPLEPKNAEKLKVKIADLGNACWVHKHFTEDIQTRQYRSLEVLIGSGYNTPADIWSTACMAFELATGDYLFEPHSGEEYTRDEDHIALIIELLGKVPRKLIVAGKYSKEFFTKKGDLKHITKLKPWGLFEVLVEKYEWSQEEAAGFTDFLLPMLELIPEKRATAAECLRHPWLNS
RSK3, sequence (Q15349 whole entry): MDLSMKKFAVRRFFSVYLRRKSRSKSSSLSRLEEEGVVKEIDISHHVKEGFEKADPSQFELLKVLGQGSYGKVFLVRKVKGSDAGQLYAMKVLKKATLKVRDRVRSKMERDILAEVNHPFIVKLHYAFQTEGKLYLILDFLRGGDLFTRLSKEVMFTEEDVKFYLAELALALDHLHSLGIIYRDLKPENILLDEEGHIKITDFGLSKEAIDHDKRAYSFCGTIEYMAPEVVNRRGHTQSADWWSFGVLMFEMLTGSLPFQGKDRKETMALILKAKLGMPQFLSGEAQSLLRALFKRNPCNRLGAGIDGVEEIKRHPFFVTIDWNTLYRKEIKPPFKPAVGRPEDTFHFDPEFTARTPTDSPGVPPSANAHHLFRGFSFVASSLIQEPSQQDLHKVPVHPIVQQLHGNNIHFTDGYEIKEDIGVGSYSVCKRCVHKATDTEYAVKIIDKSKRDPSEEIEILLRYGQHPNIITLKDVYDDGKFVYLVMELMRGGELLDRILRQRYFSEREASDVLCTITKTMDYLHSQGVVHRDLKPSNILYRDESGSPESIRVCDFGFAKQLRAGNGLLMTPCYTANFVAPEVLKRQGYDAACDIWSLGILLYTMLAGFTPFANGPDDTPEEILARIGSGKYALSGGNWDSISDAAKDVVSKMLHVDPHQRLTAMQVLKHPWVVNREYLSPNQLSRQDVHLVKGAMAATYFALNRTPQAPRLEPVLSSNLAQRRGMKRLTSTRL
CDK6/cyclinD3, sequence (Q00534 whole entry): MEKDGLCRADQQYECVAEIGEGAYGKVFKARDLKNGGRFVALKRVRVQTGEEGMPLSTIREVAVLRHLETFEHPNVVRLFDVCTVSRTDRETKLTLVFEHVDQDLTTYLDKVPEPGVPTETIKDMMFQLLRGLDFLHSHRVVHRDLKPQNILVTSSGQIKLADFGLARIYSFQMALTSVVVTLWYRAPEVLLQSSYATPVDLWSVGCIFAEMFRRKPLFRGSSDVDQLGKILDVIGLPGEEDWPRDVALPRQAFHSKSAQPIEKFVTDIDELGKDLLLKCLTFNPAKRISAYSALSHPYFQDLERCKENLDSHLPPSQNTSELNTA
CDK6/cyclinD3, sequence (P30281 whole entry partner): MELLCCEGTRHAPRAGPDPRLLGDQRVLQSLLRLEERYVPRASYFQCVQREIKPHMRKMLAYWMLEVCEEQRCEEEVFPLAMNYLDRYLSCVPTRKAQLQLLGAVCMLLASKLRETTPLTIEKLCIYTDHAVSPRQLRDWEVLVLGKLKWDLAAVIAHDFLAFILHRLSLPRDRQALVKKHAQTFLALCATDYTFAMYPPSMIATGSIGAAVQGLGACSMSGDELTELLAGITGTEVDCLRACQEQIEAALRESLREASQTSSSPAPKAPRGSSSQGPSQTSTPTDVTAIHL
SRC, sequence (P12931 whole entry): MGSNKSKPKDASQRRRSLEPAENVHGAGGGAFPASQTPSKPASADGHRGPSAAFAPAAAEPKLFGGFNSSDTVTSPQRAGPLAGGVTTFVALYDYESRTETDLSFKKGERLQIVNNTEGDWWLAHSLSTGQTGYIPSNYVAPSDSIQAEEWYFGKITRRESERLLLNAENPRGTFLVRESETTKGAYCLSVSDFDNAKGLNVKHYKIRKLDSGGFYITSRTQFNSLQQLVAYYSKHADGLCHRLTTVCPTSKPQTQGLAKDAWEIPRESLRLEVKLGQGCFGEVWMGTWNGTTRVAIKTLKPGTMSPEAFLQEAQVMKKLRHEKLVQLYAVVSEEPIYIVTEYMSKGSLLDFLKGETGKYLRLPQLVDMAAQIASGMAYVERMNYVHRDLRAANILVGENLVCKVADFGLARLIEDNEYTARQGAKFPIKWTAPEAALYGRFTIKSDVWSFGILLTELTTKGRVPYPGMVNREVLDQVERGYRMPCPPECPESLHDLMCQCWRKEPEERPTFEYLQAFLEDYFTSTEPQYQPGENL
GSK3β, sequence (P49841 whole entry): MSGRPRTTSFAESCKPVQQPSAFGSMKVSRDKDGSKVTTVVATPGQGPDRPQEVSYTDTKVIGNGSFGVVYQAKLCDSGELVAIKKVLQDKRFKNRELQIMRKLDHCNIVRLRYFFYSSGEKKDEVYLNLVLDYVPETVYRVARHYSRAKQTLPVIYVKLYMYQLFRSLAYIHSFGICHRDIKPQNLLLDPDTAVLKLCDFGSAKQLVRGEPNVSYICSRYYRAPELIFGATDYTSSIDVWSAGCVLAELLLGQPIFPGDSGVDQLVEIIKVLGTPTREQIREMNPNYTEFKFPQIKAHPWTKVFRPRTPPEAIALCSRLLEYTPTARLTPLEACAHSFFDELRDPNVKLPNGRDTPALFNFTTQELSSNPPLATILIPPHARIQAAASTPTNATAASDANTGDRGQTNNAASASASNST
MNK2, sequence (Q9HBH9 whole entry): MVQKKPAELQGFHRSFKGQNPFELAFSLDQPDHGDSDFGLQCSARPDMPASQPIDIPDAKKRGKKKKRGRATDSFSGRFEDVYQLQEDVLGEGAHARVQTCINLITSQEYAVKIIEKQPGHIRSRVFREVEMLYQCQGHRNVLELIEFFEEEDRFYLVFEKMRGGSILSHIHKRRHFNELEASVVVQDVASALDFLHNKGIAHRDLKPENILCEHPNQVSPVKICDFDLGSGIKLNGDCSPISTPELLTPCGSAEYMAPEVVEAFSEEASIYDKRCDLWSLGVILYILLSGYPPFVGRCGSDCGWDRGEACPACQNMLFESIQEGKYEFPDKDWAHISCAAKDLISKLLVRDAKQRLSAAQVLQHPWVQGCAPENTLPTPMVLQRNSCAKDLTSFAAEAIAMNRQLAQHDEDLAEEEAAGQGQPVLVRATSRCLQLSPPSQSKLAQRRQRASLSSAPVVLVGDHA

For the compound `COc1cc(-c2cc(-c3ccc(N4CCNCC4)cc3)cnc2N)cc(OC)c1OC` [Compound 15, 5-(4-(piperazin-1-yl)phenyl)-3-(3,4,5-trimethoxyphenyl)pyridin-2-amine], the inhibition at 0.1 µM in [1] was determined as 40%; in assay [2], 1%; in assay [3], 1%; in assay [4] it was 2%; in [5] it was 22%; in assay [6] it was 0%. For the same compound, the inhibition at 0.1 µM in assay [7] was 2%; in assay [8] it was 3%; in [9] it was 16%; in assay [10], 1%. Also, the inhibition at 1 µM was 81% in [1]; -1% in assay [2]; 0% in assay [3]; 3% in [4]; 70% in assay [5]; -1% in [6]. For the same compound, the inhibition at 1 µM in assay [7] came to 3%; in [8], 6%; in [9] it was 64%; in [10], 7%.
As for `COc1cc(-c2cc(-c3ccc(N4CCNCC4)cc3)cnc2C)cc(OC)c1OC` [Compound 10, 1-(4-(6-methyl-5-(3,4,5-trimethoxyphenyl)pyridin-3-yl)phenyl)piperazine], the inhibition at 0.1 µM was determined as 8% in assay [1]; 2% in [2]; 0% in [3]; 3% in assay [4]; 5% in assay [5]; 2% in assay [6]. For the same compound, the inhibition at 0.1 µM in assay [7] was determined as 1%; in assay [8] it was 3%; in assay [9], 1%; in assay [10], 6%. For the same compound, the inhibition at 1 µM in assay [1] came out at 23%; in assay [2], 2%; in assay [3], 1%; in assay [4], 3%; in assay [5] it was 15%; in [6], 4%. The inhibition at 1 µM in [7] was -1%; in [8] it was 1%; in [9] it was 12%; in assay [10], 6%.
